According to PubChem BioAssay (NCI):
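Values below derive from 48-hour exposures of cells grown in 96-well plates, with endpoints linearly interpolated between the two concentrations bracketing the appropriate inhibition level. The concentration for full growth arrest is given as TGI.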

What was measured:
Assay in all cases: inhibition of tumour cell growth, NCI panel, 48 h
SK-MEL-5 melanoma = system: SK-MEL-5 melanoma
M19-MEL melanoma = system: M19-MEL melanoma
SNB-19 CNS = system: SNB-19 CNS
DMS 114 small cell lung = system: DMS 114 small cell lung
MOLT-4 leukemia = system: MOLT-4 leukemia
CCRF-CEM leukemia = system: CCRF-CEM leukemia
UO-31 renal = system: UO-31 renal
NCI-H460 lung = system: NCI-H460 lung
NCI-H226 lung = system: NCI-H226 lung
MALME-3M melanoma = system: MALME-3M melanoma
SF-539 CNS = system: SF-539 CNS
NCI-H522 lung = system: NCI-H522 lung
LXFL 529 NSCLC = system: LXFL 529 NSCLC
UACC-257 melanoma = system: UACC-257 melanoma
CAKI-1 renal = system: CAKI-1 renal
UACC-62 melanoma = system: UACC-62 melanoma
A549 NSCLC = system: A549 NSCLC
HOP-92 NSCLC = system: HOP-92 NSCLC
NCI-H23 lung = system: NCI-H23 lung
OVCAR-3 ovarian = system: OVCAR-3 ovarian
RPMI-8226 leukemia = system: RPMI-8226 leukemia
SR leukemia = system: SR leukemia
SK-MEL-2 melanoma = system: SK-MEL-2 melanoma
ACHN renal = system: ACHN renal
HT29 colon = system: HT29 colon
SNB-75 CNS = system: SNB-75 CNS
SF-268 CNS = system: SF-268 CNS
SW-620 colon = system: SW-620 colon
OVCAR-4 ovarian = system: OVCAR-4 ovarian
HCT-15 colon = system: HCT-15 colon
DMS 273 small cell lung = system: DMS 273 small cell lung
IGROV1 ovarian = system: IGROV1 ovarian
HL-60(TB) leukemia = system: HL-60(TB) leukemia
HOP-62 NSCLC = system: HOP-62 NSCLC
K-562 leukemia = system: K-562 leukemia
KM12 colon = system: KM12 colon
HCT-116 colon = system: HCT-116 colon
SF-295 CNS = system: SF-295 CNS
OVCAR-5 ovarian = system: OVCAR-5 ovarian
786-0 renal = system: 786-0 renal
COLO 205 colon = system: COLO 205 colon
U251 CNS = system: U251 CNS
HCC-2998 colon = system: HCC-2998 colon
DLD-1 colon = system: DLD-1 colon
TK-10 renal = system: TK-10 renal
M14 melanoma = system: M14 melanoma
KM20L2 colon = system: KM20L2 colon
OVCAR-8 ovarian = system: OVCAR-8 ovarian
SN12C renal = system: SN12C renal
SK-MEL-28 melanoma = system: SK-MEL-28 melanoma
SK-OV-3 ovarian = system: SK-OV-3 ovarian
SNB-78 CNS = system: SNB-78 CNS
LOX IMVI melanoma = system: LOX IMVI melanoma
A498 renal = system: A498 renal
EKVX NSCLC = system: EKVX NSCLC
HOP-18 NSCLC = system: HOP-18 NSCLC
RXF 393 renal = system: RXF 393 renal

## COC(=O)[C@H]1[C@H]2C[C@@H]3c4[nH]c5cc(OC)ccc5c4CCN3C[C@H]2C[C@@H](OC(=O)c2cc(OC)c(OC)c(OC)c2)[C@@H]1OC
SK-MEL-5 melanoma
  TGI: 54.3 µM
M19-MEL melanoma
  TGI: 50 µM
SNB-19 CNS
  TGI: 41 µM
DMS 114 small cell lung
  TGI: 40.4 µM
MOLT-4 leukemia
  TGI: 50.6 µM
CCRF-CEM leukemia
  TGI: 44.1 µM
UO-31 renal
  TGI: 43.5 µM
NCI-H460 lung
  TGI: 59.9 µM
NCI-H226 lung
  TGI: 66.7 µM
MALME-3M melanoma
  TGI: 34.2 µM
SF-539 CNS
  TGI: 23.8 µM
NCI-H522 lung
  TGI: 34 µM
LXFL 529 NSCLC
  TGI: 35.7 µM
UACC-257 melanoma
  TGI: 42.1 µM
CAKI-1 renal
  TGI: 36 µM
UACC-62 melanoma
  TGI: 36.9 µM
A549 NSCLC
  TGI: 55.5 µM
HOP-92 NSCLC
  TGI: 39.9 µM
NCI-H23 lung
  TGI: 41.7 µM
OVCAR-3 ovarian
  TGI: 32.9 µM
RPMI-8226 leukemia
  TGI: 39.5 µM
SR leukemia
  TGI: 34 µM
SK-MEL-2 melanoma
  TGI: 38.1 µM
ACHN renal
  TGI: > 100 µM
HT29 colon
  TGI: 29.8 µM
SNB-75 CNS
  TGI: 10.2 µM
SF-268 CNS
  TGI: > 100 µM
SW-620 colon
  TGI: > 100 µM
OVCAR-4 ovarian
  TGI: 27.8 µM
HCT-15 colon
  TGI: 87.8 µM
DMS 273 small cell lung
  TGI: 51.8 µM
IGROV1 ovarian
  TGI: 47.1 µM
HL-60(TB) leukemia
  TGI: 30.5 µM
HOP-62 NSCLC
  TGI: 28.1 µM
K-562 leukemia
  TGI: 29.3 µM
KM12 colon
  TGI: 41.7 µM
HCT-116 colon
  TGI: 31.5 µM
SF-295 CNS
  TGI: 37.7 µM
OVCAR-5 ovarian
  TGI: > 100 µM
786-0 renal
  TGI: 27.7 µM
COLO 205 colon
  TGI: 33.6 µM
U251 CNS
  TGI: 28.2 µM
HCC-2998 colon
  TGI: 47.1 µM
DLD-1 colon
  TGI: > 100 µM
TK-10 renal
  TGI: 38 µM
M14 melanoma
  TGI: 30.3 µM
KM20L2 colon
  TGI: 35.3 µM
OVCAR-8 ovarian
  TGI: 49.6 µM

## COc1ccc(N(C)CN(C)c2nc(N(C)C)nc(N(C)C)n2)cc1
SK-MEL-5 melanoma
  TGI: > 100 µM
M19-MEL melanoma
  TGI: > 100 µM
SNB-19 CNS
  TGI: > 100 µM
DMS 114 small cell lung
  TGI: > 100 µM
MOLT-4 leukemia
  TGI: > 100 µM
CCRF-CEM leukemia
  TGI: > 100 µM
UO-31 renal
  TGI: > 100 µM
SN12C renal
  TGI: > 100 µM
NCI-H460 lung
  TGI: > 100 µM
MALME-3M melanoma
  TGI: > 100 µM
SF-539 CNS
  TGI: > 100 µM
NCI-H522 lung
  TGI: > 100 µM
SK-MEL-28 melanoma
  TGI: > 100 µM
LXFL 529 NSCLC
  TGI: > 100 µM
UACC-257 melanoma
  TGI: > 100 µM
CAKI-1 renal
  TGI: > 100 µM
UACC-62 melanoma
  TGI: > 100 µM
A549 NSCLC
  TGI: > 100 µM
HOP-92 NSCLC
  TGI: > 100 µM
SK-OV-3 ovarian
  TGI: > 100 µM
NCI-H23 lung
  TGI: > 100 µM
OVCAR-3 ovarian
  TGI: > 100 µM
RPMI-8226 leukemia
  TGI: > 100 µM
SNB-78 CNS
  TGI: > 100 µM
SR leukemia
  TGI: > 100 µM
SK-MEL-2 melanoma
  TGI: > 100 µM
ACHN renal
  TGI: > 100 µM
HT29 colon
  TGI: > 100 µM
SNB-75 CNS
  TGI: > 100 µM
LOX IMVI melanoma
  TGI: > 100 µM
SF-268 CNS
  TGI: > 100 µM
SW-620 colon
  TGI: > 100 µM
A498 renal
  TGI: > 100 µM
OVCAR-4 ovarian
  TGI: > 100 µM
HCT-15 colon
  TGI: > 100 µM
DMS 273 small cell lung
  TGI: > 100 µM
IGROV1 ovarian
  TGI: > 100 µM
HL-60(TB) leukemia
  TGI: > 100 µM
HOP-62 NSCLC
  TGI: > 100 µM
K-562 leukemia
  TGI: > 100 µM
KM12 colon
  TGI: > 100 µM
HCT-116 colon
  TGI: > 100 µM
SF-295 CNS
  TGI: > 100 µM
OVCAR-5 ovarian
  TGI: > 100 µM
786-0 renal
  TGI: > 100 µM
COLO 205 colon
  TGI: > 100 µM
EKVX NSCLC
  TGI: > 100 µM
U251 CNS
  TGI: > 100 µM
DLD-1 colon
  TGI: > 100 µM
TK-10 renal
  TGI: > 100 µM
M14 melanoma
  TGI: > 100 µM
KM20L2 colon
  TGI: > 100 µM
OVCAR-8 ovarian
  TGI: > 100 µM
HOP-18 NSCLC
  TGI: > 100 µM

## Cc1cc(=O)n(-c2ccccc2)c(=O)o1
SK-MEL-5 melanoma
  TGI: > 100 µM
M19-MEL melanoma
  TGI: > 100 µM
SNB-19 CNS
  TGI: > 100 µM
DMS 114 small cell lung
  TGI: > 100 µM
MOLT-4 leukemia
  TGI: > 100 µM
CCRF-CEM leukemia
  TGI: > 100 µM
UO-31 renal
  TGI: > 100 µM
SN12C renal
  TGI: > 100 µM
NCI-H460 lung
  TGI: > 100 µM
NCI-H226 lung
  TGI: > 100 µM
MALME-3M melanoma
  TGI: > 100 µM
SF-539 CNS
  TGI: > 100 µM
NCI-H522 lung
  TGI: > 100 µM
SK-MEL-28 melanoma
  TGI: > 100 µM
LXFL 529 NSCLC
  TGI: > 100 µM
UACC-257 melanoma
  TGI: > 100 µM
CAKI-1 renal
  TGI: > 100 µM
UACC-62 melanoma
  TGI: > 100 µM
A549 NSCLC
  TGI: > 100 µM
HOP-92 NSCLC
  TGI: > 100 µM
SK-OV-3 ovarian
  TGI: > 100 µM
NCI-H23 lung
  TGI: > 100 µM
OVCAR-3 ovarian
  TGI: > 100 µM
RPMI-8226 leukemia
  TGI: > 100 µM
SNB-78 CNS
  TGI: > 100 µM
SR leukemia
  TGI: > 100 µM
SK-MEL-2 melanoma
  TGI: > 100 µM
ACHN renal
  TGI: > 100 µM
HT29 colon
  TGI: > 100 µM
SNB-75 CNS
  TGI: > 100 µM
LOX IMVI melanoma
  TGI: > 100 µM
RXF 393 renal
  TGI: > 100 µM
SF-268 CNS
  TGI: > 100 µM
SW-620 colon
  TGI: > 100 µM
A498 renal
  TGI: > 100 µM
OVCAR-4 ovarian
  TGI: > 100 µM
HCT-15 colon
  TGI: > 100 µM
DMS 273 small cell lung
  TGI: > 100 µM
IGROV1 ovarian
  TGI: > 100 µM
HL-60(TB) leukemia
  TGI: > 100 µM
HOP-62 NSCLC
  TGI: > 100 µM
K-562 leukemia
  TGI: > 100 µM
KM12 colon
  TGI: > 100 µM
HCT-116 colon
  TGI: > 100 µM
SF-295 CNS
  TGI: > 100 µM
OVCAR-5 ovarian
  TGI: > 100 µM
786-0 renal
  TGI: > 100 µM
COLO 205 colon
  TGI: > 100 µM
EKVX NSCLC
  TGI: > 100 µM
U251 CNS
  TGI: > 100 µM
HCC-2998 colon
  TGI: > 100 µM
DLD-1 colon
  TGI: > 100 µM
TK-10 renal
  TGI: > 100 µM
M14 melanoma
  TGI: > 100 µM
KM20L2 colon
  TGI: > 100 µM
HOP-18 NSCLC
  TGI: > 100 µM

## CNC(=S)N/N=C1\CC(c2ccccc2)Oc2ccccc21 (stereo unspecified)
SK-MEL-5 melanoma
  TGI: > 100 µM
M19-MEL melanoma
  TGI: > 100 µM
SNB-19 CNS
  TGI: > 100 µM
MOLT-4 leukemia
  TGI: > 100 µM
CCRF-CEM leukemia
  TGI: > 100 µM
UO-31 renal
  TGI: > 100 µM
SN12C renal
  TGI: > 100 µM
NCI-H460 lung
  TGI: > 100 µM
NCI-H226 lung
  TGI: > 100 µM
MALME-3M melanoma
  TGI: > 100 µM
SF-539 CNS
  TGI: > 100 µM
NCI-H522 lung
  TGI: > 100 µM
SK-MEL-28 melanoma
  TGI: > 100 µM
LXFL 529 NSCLC
  TGI: > 100 µM
CAKI-1 renal
  TGI: > 100 µM
UACC-62 melanoma
  TGI: > 100 µM
A549 NSCLC
  TGI: > 100 µM
HOP-92 NSCLC
  TGI: > 100 µM
SK-OV-3 ovarian
  TGI: > 100 µM
NCI-H23 lung
  TGI: > 100 µM
OVCAR-3 ovarian
  TGI: > 100 µM
SNB-78 CNS
  TGI: > 100 µM
SR leukemia
  TGI: > 100 µM
SK-MEL-2 melanoma
  TGI: > 100 µM
ACHN renal
  TGI: > 100 µM
HT29 colon
  TGI: > 100 µM
SNB-75 CNS
  TGI: > 100 µM
LOX IMVI melanoma
  TGI: > 100 µM
RXF 393 renal
  TGI: > 100 µM
SF-268 CNS
  TGI: > 100 µM
SW-620 colon
  TGI: > 100 µM
OVCAR-4 ovarian
  TGI: > 100 µM
DMS 273 small cell lung
  TGI: > 100 µM
IGROV1 ovarian
  TGI: > 100 µM
K-562 leukemia
  TGI: > 100 µM
KM12 colon
  TGI: > 100 µM
HCT-116 colon
  TGI: > 100 µM
SF-295 CNS
  TGI: > 100 µM
OVCAR-5 ovarian
  TGI: > 100 µM
786-0 renal
  TGI: > 100 µM
COLO 205 colon
  TGI: > 100 µM
EKVX NSCLC
  TGI: > 100 µM
U251 CNS
  TGI: > 100 µM
HCC-2998 colon
  TGI: > 100 µM
DLD-1 colon
  TGI: > 100 µM
TK-10 renal
  TGI: > 100 µM
M14 melanoma
  TGI: > 100 µM
OVCAR-8 ovarian
  TGI: > 100 µM
